Laboratory results published in article PMC8145596, “Novel Chemically Modified Curcumin (CMC) Derivatives Inhibit Tyrosinase Activity and Melanin Synthesis in B16F10 Mouse Melanoma Cells” (Biomolecules, 2021).

How the values were obtained:
[1] = molecular target: T1, α-glucosidase enzyme from Baker’s yeast (Saccharomyces cerevisiae, UniProt P53341); experiment: Cell-free α-glucosidase assay; assay type: biochemical
T1 construct: purchased Sigma-Aldrich (St. Louis, MO, USA)
Method: The effects of compounds on α-glucosidase were assayed based on the method decribed previously with some modifications. 80 µL of samples (prepared in 0.05 M phosphate buffer, pH 6.8) were aliquoted in a 96-well microplate followed by the addition of 100 µL of 2.4 mM pNG substrate solution. A volume of 20 µL of 0.45 units of α-glucosidase enzyme from Baker’s yeast prepared in 0.05 M buffer was added to start the reaction; the rate of the formation of p-nitrophenol was monitored at 405 nm for 15 min at 37 °C in a microplate reader in kinetic mode. The enzyme activity (%) was calculated as: (rate of sample reaction/rate of control reaction) × 100%.

[2] = tested on: tyrosinase activity in B16F10 cells; experiment: Intracellular tyrosinase activity in B16F10 cell lysates; assay type: cell-based, mouse; conditions: 48 h
Method: B16F10 cells (4 × 10^4 cells/well in 1 mL medium) were cultured in 24-well plates for 24 h. After that, the medium was replaced by fresh medium containing the compounds, and further incubated for 48 h. At the end of treatments, the cells were harvested, and cell pellets were washed in PBS and lysed and then centrifuged. Lysates (50 µL) were then aliquoted in a 96-well plate and 150 µL of 3 mM L-DOPA was added. The absorbance was measured at 475 nm every 30 s for 40 min at 30 °C using a microplate reader in the kinetic mode. The tyrosinase activity was calculated from the slope of the linear range of the velocity in the presence of each test compound and normalized to the total protein content and reported as % of control.

[3] = tested on: tyrosinase activity in B16F10 cells; experiment: Recovery study of intracellular tyrosinase activity; assay type: cell-based, mouse
Method: In order to establish reversibility of tyrosinase inhibition by the CMCs, we conducted a recovery study for 48 h using the highest concentrations of the compounds that produced maximum inhibition of tyrosinase activity. B16F10 cells were plated in six-well plates at 3.5 × 10^4 cells/well and then compounds were added the next day. Tyrosinase activity was estimated after 48 h exposure in cellular lysates and another set of cultures were continued with fresh medium without the compounds to study the recovery of tyrosinase activity for 48 h. Results are expressed as % tyrosinase activity for both 48 h exposure and 48 h recovery.

[4] = tested on: MITF protein in B16F10 cells; experiment: MITF protein levels by cell-based ELISA; parameters: species or system mouse; conditions: 48 h
Method: Microphthalmia Transcription Factor (MITF), a known transcription factor for the tyrosinase gene, is a master regulator of melanogenesis and is activated by cyclic adenosine monophosphate (cAMP) signaling after UV irradiation, reflecting the role of cAMP as a key maturation factor in melanogenesis. The effects of PC and CMCs on MITF protein levels were assayed using a cell-based ELISA (Lifespan Biosciences, Seattle, WA, USA). Briefly, B16F10 cells were cultured in a 96-well plate at 1 × 10^4 cells/well for 24 h and then the medium was replaced with fresh medium containing compounds in 0.1% DMSO and cultures maintained for further 48 h. The cells were then fixed, and subsequent steps were conducted according to the manufacturers’ instructions. MITF protein levels were normalized to cell density by measuring the absorbance of crystal violet stain added to the fixed cells and the data was reported as % of control.

[5] = DPPH radical scavenging antioxidant assay; conditions: 60 μM DPPH, 30 min
Method: Melanin production catalyzed by the tyrosinase pathway is often associated with higher levels of oxidative stress and reactive oxygen species (ROS) generation. […] DPPH (2,2-Diphenyl-1-picrylhydrazyl) is a stable free radical which changes color from purple to yellow upon reduction by antioxidant compounds. Briefly, 180 µL of DPPH reagent that was prepared in methanol was combined with 20 µL of different concentrations of the compounds in a 96-well plate to give a final DPPH concentration of 60 μM in each well. A control group consisted of DPPH only while ascorbic acid (AA) at 20 µM was used as a positive control. The plate was covered and incubated for 30 min, after which the absorbance was read at 517 nm and the DPPH radical scavenging activity was reported as % of control.

[6] = Copper chelating assay (pyrocatechol violet)
Method: Copper chelation can be detected by a PV colorimetric assay as reported in other studies and similar to the method reported in our previous study. Briefly, 100 µL aliquots of different concentrations of compounds prepared in 50 mM sodium acetate buffer (pH 6.0) were added to a 96-well plate. The control group consisted of buffer only, while KA at 500 µM served as a positive control. Copper sulfate (2 mM; 10 µL) was added to each of the samples and incubated for 10 min. Next, 10 µL of 2 mM PV was added and the plate was further incubated for 20 min. The absorbance was read at 632 nm using a microplate reader; a lower absorbance compared to that of the buffer control was indicative of copper chelation.

[7] = tested on: MNT-1 human melanoma cells; experiment: Melanin content assay in MNT-1 cells; assay type: cell-based; conditions: 48 h; CMC2.24 at 20 µM; preliminary evaluation
Method: II. Experiments in MNT-1 human melanoma cells
MNT-1 cells (kindly provided by Dr. Michael Marks, University of Pennsylvania) were cultured using DMEM supplemented with 1 % MEM (minimum essential medium), 18 % HI-FBS, 10 % AIM-V medium (Gibco) and 1 % antibiotic mixture.
MNT-1 human melanoma cells (2 × 10^4 cells/ well) were seeded in a 96-well plate and cultured for 96 h. After this, the test compounds were added in complete medium and cultures were maintained for 48 h, followed by conducting the MTS assay to detect cytotoxicity similar to methods reports in main text. The results were expressed as % normalized to untreated control group.
MNT-1 human melanoma cells were seeded at 2.2 × 10^5 cells/well in 12-well plates and incubated for 24 hours. […] Briefly, the absorbance of melanin was measured at 475 nm and was normalized to the total protein contents and reported as relative melanin levels as a % of control.
Figure S3: Viability of MNT-1 cells treated with A) PC, CMC2.14 and CMC2.5 and B) CMC2.23 and CMC2.24 for a duration of 48 h evaluated by MTS assay; Data for A)-B) are mean ± SD of 3-4 determinations; C) Melanin content in cultures of MNT-1 cells treated for 48 h with different concentrations of PC and CMCs, Data are mean ± SD of values combined from two independent experiments. * p < 0.05 vs. control (Ctrl); One-way ANOVA with Tukey’s […]

[8] = Mus musculus, B16-F10, 48 h, read-out: loss of tyrosinase activity after 48 h exposure (recovery study)

T1 sequence (P53341 whole entry): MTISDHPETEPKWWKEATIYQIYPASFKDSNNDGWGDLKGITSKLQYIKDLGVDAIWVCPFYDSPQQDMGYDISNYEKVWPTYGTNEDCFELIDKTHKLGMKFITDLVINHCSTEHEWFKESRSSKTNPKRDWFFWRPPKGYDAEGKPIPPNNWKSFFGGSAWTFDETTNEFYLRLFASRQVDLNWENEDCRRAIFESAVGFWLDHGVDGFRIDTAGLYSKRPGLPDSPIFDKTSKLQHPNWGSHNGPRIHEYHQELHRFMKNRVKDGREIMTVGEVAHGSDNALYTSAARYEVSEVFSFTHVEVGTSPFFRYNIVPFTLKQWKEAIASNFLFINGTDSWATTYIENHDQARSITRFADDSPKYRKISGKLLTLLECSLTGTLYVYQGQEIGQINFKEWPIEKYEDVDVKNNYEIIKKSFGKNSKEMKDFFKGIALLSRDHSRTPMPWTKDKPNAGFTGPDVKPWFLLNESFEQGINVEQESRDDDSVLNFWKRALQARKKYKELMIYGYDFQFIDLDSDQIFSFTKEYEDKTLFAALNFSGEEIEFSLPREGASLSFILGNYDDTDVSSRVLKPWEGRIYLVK

Molecule	inhibition at 10 µM ([1]; 10 µM) [%]	suppression of intracellular tyrosinase activity ([2]; 5 µM) [%]	suppression of intracellular tyrosinase activity ([2]; 10 µM) [%]	tyrosinase activity after 48 h recovery in compound-free medium ([3]; after exposure to 10 µM)	attenuation of MITF protein levels ([4]; 10 µM) [%]	DPPH radical scavenging activity [5]	inhibition at 5 µM ([1]; 5 µM) [%]	inhibition at 20 µM [1] [%]	inhibition at 25 µM [1] [%]	suppression of intracellular tyrosinase activity ([2]; 20 µM) [%]	suppression of intracellular tyrosinase activity ([2]; 25 µM) [%]	inhibition at 20 µM [3, 8] [%]	attenuation of MITF protein levels ([4]; 20 µM) [%]	attenuation of MITF protein levels ([4]; 25 µM) [%]	melanin inhibition in MNT-1 cells [7]	other results
COC(=O)/C(C(=O)/C=C/c1ccc(O)cc1)=C(O)\C=C\c1ccc(O)cc1 [CMC2.14]	14.3	47.96	50.31	100%	23.67	did not demonstrate such activity										inhibition at 10 µM ([3]; Mus musculus, B16-F10, 48 h, 10 µM, read-out: loss of tyrosinase activity after 48 h exposure (recovery study)): 74.8%
COc1cc(/C=C/C(=O)/C(C(=O)Nc2ccccc2)=C(O)/C=C/c2ccc(O)c(OC)c2)ccc1O [CMC2.23]	16.5		30.04		32.27	significant radical scavenging activity	15.5	19.8	17.2	44.64	51.47	52.7	39.29	37.22		
1,7-bis(4-hydroxy-3-methoxyphenyl)-1,6-heptadien-3,5-dione [PC, reference compound]			47.85	did not differ from that of the control group	28.62	high radical scavenging activity									ineffective	inhibition of cell-free α-glucosidase activity ([1]; 5 µM): 20.13%; inhibition of cell-free α-glucosidase activity ([1]; 10 µM): 22.13%; effect on copper chelation [6]: did not show any effect on copper chelation; inhibition ([3]; 10 µM, read-out: loss of tyrosinase activity after 48 h exposure (recovery study)): 89.5%
COC(=O)/C(C(=O)/C=C/c1ccc(O)c(OC)c1)=C(O)\C=C\c1ccc(O)c(OC)c1 [CMC2.5, 4-methoxycarbonyl curcumin]			19.98			significant radical scavenging activity		14		23.16	26	42.5	32.17	35.4		cell-free α-glucosidase activity ([1]; concentrations other than 20 µM): no change was observed at any other concentration; tyrosinase activity after 48 h recovery in compound-free medium ([3]; after exposure to 20 µM): 100%
O=C(/C=C/c1ccc(O)cc1)/C(C(=O)Nc1ccccc1)=C(O)/C=C/c1ccc(O)cc1 [CMC2.24]	25.6	38.6	53.76		28.39	did not demonstrate such activity	27.1	35.3	41.3	64.25	68.81	73.3	31.79	38.84	significant attenuation of melanin levels	copper chelating activity ([6]; 20 µM, compared to the control): 11.86%
